Experimental data as given in ChEMBL document CHEMBL1201862, “PubChem BioAssay data set” (2004).
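Results reflect a 48-hour exposure of cells in 96-well plates to compound at five concentrations. Abbreviation: GI50, concentration required for 50% inhibition of growth.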 Calls of active or inactive are those of the source. Cut-off read from the data, not from the text of the source: active = GI50 up to about 1.1 µM and inactive = higher.

Columns and labels:
Test in all cases: NCI anticancer screen, dose series, 48 h
786-0 = system: 786-0
A498 = system: A498
CCRF-CEM = system: CCRF-CEM
HCC 2998 = system: HCC 2998
HL-60 = system: HL-60
HOP-62 = system: HOP-62
K562 = system: K562
Malme-3M = system: Malme-3M
NCI-H226 = system: NCI-H226
OVCAR-8 = system: OVCAR-8
RPMI-8226 = system: RPMI-8226
SF-539 = system: SF-539
SK-MEL-28 = system: SK-MEL-28
SK-MEL-5 = system: SK-MEL-5
SN12C = system: SN12C
UO-31 = system: UO-31
MCF7 = system: MCF7
MDA-MB-435 = system: MDA-MB-435
NCI/ADR-RES = system: NCI/ADR-RES
T47D = system: T47D

Row | SMILES | GI50 (786-0) | GI50 (A498) | GI50 (CCRF-CEM) | GI50 (HCC 2998) | GI50 (HL-60) | GI50 (HOP-62) | GI50 (K562) | GI50 (Malme-3M) | GI50 (NCI-H226) | GI50 (OVCAR-8) | GI50 (RPMI-8226) | GI50 (SF-539) | GI50 (SK-MEL-28) | GI50 (SK-MEL-5) | GI50 (SN12C) | GI50 (UO-31) | GI50 (MCF7) | GI50 (MDA-MB-435) | GI50 (NCI/ADR-RES) | GI50 (T47D)
1 | C=CCn1c2c(sc1=S)C(S)NC=N2 (stereo not given) | > 100 µM (inactive) | 30.8 µM (inactive) | 95.9 µM (inactive) | 26.5 µM (inactive) | > 100 µM (inactive) | 39 µM (inactive) | 73.5 µM (inactive) | 10.4 µM (inactive) | > 100 µM (inactive) | > 100 µM (inactive) | 38.5 µM (inactive) | 85.1 µM (inactive) | > 100 µM (inactive) | 54.5 µM (inactive) | > 100 µM (inactive) | 34.1 µM (inactive) |  |  |  | 
2 | C=C1C(=O)OC2/C=C(\C=O)CC/C=C(\C)C(O)C[C@@H]12 (stereo not given in full) | 2.85 µM (inactive) | 10.2 µM (inactive) | 2.57 µM (inactive) | 17.8 µM (inactive) | 2.86 µM (inactive) | 28.1 µM (inactive) | 3.33 µM (inactive) | 5.07 µM (inactive) | 20.4 µM (inactive) | 3.17 µM (inactive) | 1.95 µM (inactive) | 14.2 µM (inactive) | 4.42 µM (inactive) | 9.27 µM (inactive) | 7.52 µM (inactive) | 13.3 µM (inactive) |  |  |  | 
3 | COc1ccc(CCc2nccn2C)cc1OC | > 100 µM (inactive) | > 100 µM (inactive) | > 100 µM (inactive) | > 100 µM (inactive) | > 100 µM (inactive) | > 100 µM (inactive) | > 100 µM (inactive) | > 100 µM (inactive) |  | > 100 µM (inactive) | > 100 µM (inactive) | > 100 µM (inactive) | > 100 µM (inactive) | > 100 µM (inactive) | > 100 µM (inactive) | > 100 µM (inactive) | > 100 µM (inactive) | > 100 µM (inactive) | > 100 µM (inactive) | 
4 | O=C1/C(=C/c2ccc(O)cc2)NC(=S)N1CN1CCCCC1 | 62.2 µM (inactive) | 96.6 µM (inactive) | 23.8 µM (inactive) |  | 71.6 µM (inactive) | > 100 µM (inactive) | 72.6 µM (inactive) | > 100 µM (inactive) | 78.3 µM (inactive) | 53.5 µM (inactive) | 28.6 µM (inactive) |  | > 100 µM (inactive) | 27.4 µM (inactive) | 80 µM (inactive) | 71.4 µM (inactive) | 21.3 µM (inactive) | 70.3 µM (inactive) | > 100 µM (inactive) | 
5 | CCOC(=O)CCC(NC(=O)C(N)c1ccc([N+](=O)[O-])cc1)C(=O)NC(CCC(=O)OCC)C(=O)OCC (stereo not given) | > 100 µM (inactive) | > 100 µM (inactive) |  | > 100 µM (inactive) | > 100 µM (inactive) | > 100 µM (inactive) | > 100 µM (inactive) | > 100 µM (inactive) | > 100 µM (inactive) | > 100 µM (inactive) | > 100 µM (inactive) |  | > 100 µM (inactive) | > 100 µM (inactive) | > 100 µM (inactive) | > 100 µM (inactive) | > 100 µM (inactive) |  |  | 35.6 µM (inactive)
6 | CNc1nc(N)c(N=O)c(Nc2ccc(Br)cc2)n1 | > 100 µM (inactive) |  | 81.8 µM (inactive) | > 100 µM (inactive) | > 100 µM (inactive) | > 100 µM (inactive) | > 100 µM (inactive) | > 100 µM (inactive) |  | > 100 µM (inactive) | > 100 µM (inactive) | > 100 µM (inactive) | > 100 µM (inactive) | > 100 µM (inactive) | > 100 µM (inactive) | 9.57 µM (inactive) | > 100 µM (inactive) | > 100 µM (inactive) | > 100 µM (inactive) | 
7 | CC(=O)Nc1ccc(C2C(C(=O)Nc3ccccc3)=C(C)NC(C)=C2C(=O)Nc2ccccc2)cc1 | > 100 µM (inactive) | > 100 µM (inactive) | 35.2 µM (inactive) | > 100 µM (inactive) | 39.8 µM (inactive) | > 100 µM (inactive) | > 100 µM (inactive) | > 100 µM (inactive) | > 100 µM (inactive) | > 100 µM (inactive) | > 100 µM (inactive) | > 100 µM (inactive) | > 100 µM (inactive) | > 100 µM (inactive) | > 100 µM (inactive) | > 100 µM (inactive) |  |  |  | 
8 | O=Cc1ccc(-c2ccc(-c3ccc(C=O)s3)o2)s1 | 23.8 µM (inactive) | 0.284 µM (active) | > 43.6 µM (inactive) | 18 µM (inactive) | > 100 µM (inactive) | 8.63 µM (inactive) | 28.2 µM (inactive) | > 100 µM (inactive) | 0.656 µM (active) | > 100 µM (inactive) | > 100 µM (inactive) | > 82.4 µM (inactive) | 98.4 µM (inactive) | > 87.7 µM (inactive) | 97.9 µM (inactive) | 68.5 µM (inactive) |  | 71.4 µM (inactive) | 61.5 µM (inactive) | 
9 | O=S1OC2(c3ccccc3-c3ccccc32)c2ccccc21 (stereo not given) | > 100 µM (inactive) | > 100 µM (inactive) | 72.8 µM (inactive) | > 100 µM (inactive) | > 100 µM (inactive) | 40.6 µM (inactive) | > 100 µM (inactive) | > 100 µM (inactive) | > 100 µM (inactive) | > 100 µM (inactive) | > 100 µM (inactive) | > 100 µM (inactive) | > 100 µM (inactive) | > 100 µM (inactive) | > 100 µM (inactive) | > 100 µM (inactive) |  |  |  | 
10 | Cc1ccc(-c2c(C#N)c(-c3ccc(Cl)cc3)c(C#N)c(=O)n2NS(=O)(=O)c2ccccc2)cc1 | 86.5 µM (inactive) | 86.7 µM (inactive) | 34.4 µM (inactive) | 37.1 µM (inactive) | 73.1 µM (inactive) | 23.4 µM (inactive) | 88.1 µM (inactive) | > 100 µM (inactive) | 77.3 µM (inactive) | 76.4 µM (inactive) | 18.4 µM (inactive) | 44.9 µM (inactive) | > 100 µM (inactive) | 31.9 µM (inactive) | 95.1 µM (inactive) |  | 51.2 µM (inactive) | > 100 µM (inactive) | 26.9 µM (inactive) | 
11 | CC(CCOc1c2ccoc2cc2oc(=O)ccc12)C1=CC(=O)C(C)(C)O1 (stereo not given) | > 100 µM (inactive) |  | > 100 µM (inactive) | > 100 µM (inactive) | > 100 µM (inactive) | > 100 µM (inactive) | > 100 µM (inactive) | > 100 µM (inactive) | > 100 µM (inactive) | > 100 µM (inactive) | > 100 µM (inactive) | > 100 µM (inactive) | > 100 µM (inactive) | > 100 µM (inactive) | > 100 µM (inactive) | > 100 µM (inactive) | > 100 µM (inactive) | > 100 µM (inactive) | > 100 µM (inactive) | 
12 | NNC(=S)N/N=C(\c1nc2ccc(Cl)cc2nc1O)C(O)c1cccc([N+](=O)[O-])c1 (stereo not given) | > 43 µM (inactive) | > 100 µM (inactive) | > 52.5 µM (inactive) | > 100 µM (inactive) | > 52.2 µM (inactive) | > 38.9 µM (inactive) | > 45.3 µM (inactive) | > 100 µM (inactive) | > 100 µM (inactive) | > 100 µM (inactive) | > 43.3 µM (inactive) | > 31.8 µM (inactive) | > 49 µM (inactive) | > 100 µM (inactive) | 72.3 µM (inactive) | > 100 µM (inactive) |  |  |  | 
13 | CC(C)OP(=O)(OC(C)C)/C(=N/Nc1ccc([N+](=O)[O-])cc1)NN | > 100 µM (inactive) | > 100 µM (inactive) | > 100 µM (inactive) | > 100 µM (inactive) | > 100 µM (inactive) | > 100 µM (inactive) | 65.9 µM (inactive) | > 100 µM (inactive) | 0.592 µM (active) | > 100 µM (inactive) | 88.3 µM (inactive) | > 100 µM (inactive) | > 100 µM (inactive) | 35.7 µM (inactive) | > 100 µM (inactive) | 88.5 µM (inactive) |  |  |  | 
14 | Cc1ccccc1NC(=O)C(=O)C(C#N)c1ccccc1C (stereo not given) | > 100 µM (inactive) | > 100 µM (inactive) | 30.4 µM (inactive) | > 100 µM (inactive) | 53.3 µM (inactive) | > 100 µM (inactive) | 21.9 µM (inactive) | > 100 µM (inactive) | > 100 µM (inactive) | > 100 µM (inactive) | > 100 µM (inactive) | > 100 µM (inactive) | > 100 µM (inactive) | > 100 µM (inactive) | > 100 µM (inactive) | > 100 µM (inactive) |  |  |  | 
15 | N#CCC(=O)N/N=C(\C(=O)Nc1ccc(Cl)c(Cl)c1)C1CN(c2ccccc2)N=C1N (stereo not given) | > 100 µM (inactive) | > 100 µM (inactive) | 54 µM (inactive) | > 100 µM (inactive) | > 100 µM (inactive) | > 100 µM (inactive) | > 100 µM (inactive) | > 100 µM (inactive) | > 100 µM (inactive) | > 100 µM (inactive) | > 100 µM (inactive) | > 100 µM (inactive) | > 100 µM (inactive) | > 100 µM (inactive) | > 100 µM (inactive) | > 100 µM (inactive) |  |  |  | 
16 | O=CC[C@H]1CCc2ccccc2C12CCC(=O)CC2 | > 100 µM (inactive) | > 100 µM (inactive) | 39.8 µM (inactive) | > 100 µM (inactive) | 23.7 µM (inactive) | > 100 µM (inactive) | 28.2 µM (inactive) | 74.5 µM (inactive) | 51.4 µM (inactive) | > 100 µM (inactive) | 35.4 µM (inactive) | 6.21 µM (inactive) |  | 92.9 µM (inactive) | 67.8 µM (inactive) | 33.7 µM (inactive) |  |  |  | 
